Assay results: ChEMBL document CHEMBL3885881, “DrugMatrix”

Species on record: Rattus norvegicus
Experiment: DrugMatrix - Regimen: Daily Repeat
Assay type: toxicity, organism-based, Sprague-Dawley
Parameters: regimen Daily Repeat, gender Male, age 6-8 weeks
Details: in vivo, po, route oral GAVAGE, vehicle 100 % WATER; for ABSOLUTE BASOPHIL / ABSOLUTE EOSINOPHIL / ABSOLUTE LYMPHOCYTE / ABSOLUTE MONOCYTE / ABSOLUTE SEGMENTED NEUTROPHIL / BASOPHIL / EOSINOPHIL / ERYTHROCYTE COUNT / HEMATOCRIT / HEMOGLOBIN / LEUKOCYTE COUNT / LYMPHOCYTE / MEAN CORPUSCULAR HEMOGLOBIN / MEAN CORPUSCULAR HEMOGLOBIN CONCENTRATION / MEAN CORPUSCULAR VOLUME / MONOCYTE / NEUTROPHIL / NUCLEATED RED BLOOD CELLS / PLATELET COUNT: tissue Blood; for ALANINE AMINOTRANSFERASE / ALBUMIN / ALKALINE PHOSPHATASE / ASPARTATE AMINOTRANSFERASE / BLOOD UREA NITROGEN / CARBON DIOXIDE / CHLORIDE / CHOLESTEROL / CREATINE PHOSPHOKINASE / CREATININE / GLUCOSE / LACTATE DEHYDROGENASE / LIPASE / PHOSPHORUS / POTASSIUM / SODIUM / TOTAL BILIRUBIN / TOTAL PROTEIN / URIC ACID: tissue Plasma
[1] = 8 mg/kg, 72 h, dose level Low, time 3 day
[2] = 8 mg/kg, 120 h, dose level Low, time 5 day
[3] = 78 mg/kg, 72 h, dose level High, time 3 day
[4] = 78 mg/kg, 120 h, dose level High, time 5 day

NNc1ccccc1 [PHENYLHYDRAZINE]
ABSOLUTE BASOPHIL [1]: 0 CELLS/uL
ABSOLUTE EOSINOPHIL [1]: 0 CELLS/uL
ABSOLUTE LYMPHOCYTE [1]: 13454.67 CELLS/uL
ABSOLUTE MONOCYTE [1]: 235.67 CELLS/uL
ABSOLUTE SEGMENTED NEUTROPHIL [1]: 1043 CELLS/uL
BASOPHIL [1]: 0%
EOSINOPHIL [1]: 0%
ERYTHROCYTE COUNT [1]: 5.23 x10E6/uL
HEMATOCRIT [1]: 34.17%
HEMOGLOBIN [1]: 13.63 G/DL
LEUKOCYTE COUNT [1]: 14.73 x10E3/uL
LYMPHOCYTE [1]: 91.33%
MEAN CORPUSCULAR HEMOGLOBIN [1]: 26.1 pg
MEAN CORPUSCULAR HEMOGLOBIN CONCENTRATION [1]: 39.93 G/DL
MEAN CORPUSCULAR VOLUME [1]: 65.33 fL
MONOCYTE [1]: 1.33%
NEUTROPHIL [1]: 7.33%
NUCLEATED RED BLOOD CELLS [1]: 0 /100WBC
PLATELET COUNT [1]: 994.33 x10E3/uL
ALANINE AMINOTRANSFERASE [1]: 53 u/L
ALBUMIN [1]: 4.17 G/DL
ALKALINE PHOSPHATASE [1]: 388 u/L
ASPARTATE AMINOTRANSFERASE [1]: 115 u/L
BLOOD UREA NITROGEN [1]: 15.33 mg/dL
CARBON DIOXIDE [1]: 21.33 mmol/L
CHLORIDE [1]: 102.67 MEQ/L
CHOLESTEROL [1]: 102.33 mg/dL
CREATINE PHOSPHOKINASE [1]: 1080.67 u/L
CREATININE [1]: 0.13 mg/dL
GLUCOSE [1]: 177 mg/dL
LACTATE DEHYDROGENASE [1]: 308.67 u/L
LIPASE [1]: 9.33 u/L
PHOSPHORUS [1]: 14.53 mg/dL
POTASSIUM [1]: 6.82 MEQ/L
SODIUM [1]: 146.1 MEQ/L
TOTAL BILIRUBIN [1]: 0.17 mg/dL
TOTAL PROTEIN [1]: 5.87 G/DL
URIC ACID [1]: 2.1 mg/dL
ABSOLUTE BASOPHIL [2]: 0 CELLS/uL
ABSOLUTE EOSINOPHIL [2]: 0 CELLS/uL
ABSOLUTE LYMPHOCYTE [2]: 16277.67 CELLS/uL
ABSOLUTE MONOCYTE [2]: 115 CELLS/uL
ABSOLUTE SEGMENTED NEUTROPHIL [2]: 974 CELLS/uL
BASOPHIL [2]: 0%
EOSINOPHIL [2]: 0%
ERYTHROCYTE COUNT [2]: 5.53 x10E6/uL
HEMATOCRIT [2]: 35.4%
HEMOGLOBIN [2]: 14.27 G/DL
LEUKOCYTE COUNT [2]: 17.37 x10E3/uL
LYMPHOCYTE [2]: 93.67%
MEAN CORPUSCULAR HEMOGLOBIN [2]: 25.8 pg
MEAN CORPUSCULAR HEMOGLOBIN CONCENTRATION [2]: 40.3 G/DL
MEAN CORPUSCULAR VOLUME [2]: 64.07 fL
MONOCYTE [2]: 0.67%
NEUTROPHIL [2]: 5.67%
NUCLEATED RED BLOOD CELLS [2]: 0 /100WBC
PLATELET COUNT [2]: 1250.67 x10E3/uL
ALANINE AMINOTRANSFERASE [2]: 46.67 u/L
ALBUMIN [2]: 4.1 G/DL
ALKALINE PHOSPHATASE [2]: 440.67 u/L
ASPARTATE AMINOTRANSFERASE [2]: 81.67 u/L
BLOOD UREA NITROGEN [2]: 15.33 mg/dL
CARBON DIOXIDE [2]: 26.33 mmol/L
CHLORIDE [2]: 102 MEQ/L
CHOLESTEROL [2]: 63 mg/dL
CREATINE PHOSPHOKINASE [2]: 289 u/L
CREATININE [2]: 0.12 mg/dL
GLUCOSE [2]: 147.67 mg/dL
LACTATE DEHYDROGENASE [2]: 310.67 u/L
LIPASE [2]: 9 u/L
PHOSPHORUS [2]: 13.93 mg/dL
POTASSIUM [2]: 6.84 MEQ/L
SODIUM [2]: 144.13 MEQ/L
TOTAL BILIRUBIN [2]: 0.17 mg/dL
TOTAL PROTEIN [2]: 5.83 G/DL
URIC ACID [2]: 1.23 mg/dL
ABSOLUTE BASOPHIL [3]: 0 CELLS/uL
ABSOLUTE EOSINOPHIL [3]: 0 CELLS/uL
ABSOLUTE LYMPHOCYTE [3]: 24784.33 CELLS/uL
ABSOLUTE MONOCYTE [3]: 97 CELLS/uL
ABSOLUTE SEGMENTED NEUTROPHIL [3]: 9152 CELLS/uL
BASOPHIL [3]: 0%
EOSINOPHIL [3]: 0%
ERYTHROCYTE COUNT [3]: 3.43 x10E6/uL
HEMATOCRIT [3]: 24.43%
LEUKOCYTE COUNT [3]: 34.03 x10E3/uL
LYMPHOCYTE [3]: 73%
MEAN CORPUSCULAR VOLUME [3]: 71.33 fL
MONOCYTE [3]: 0.33%
NEUTROPHIL [3]: 26.67%
NUCLEATED RED BLOOD CELLS [3]: 21.67 /100WBC
PLATELET COUNT [3]: 1624.67 x10E3/uL
ALANINE AMINOTRANSFERASE [3]: 46 u/L
ALBUMIN [3]: 4.27 G/DL
ALKALINE PHOSPHATASE [3]: 266 u/L
ASPARTATE AMINOTRANSFERASE [3]: 107.67 u/L
BLOOD UREA NITROGEN [3]: 15 mg/dL
CARBON DIOXIDE [3]: 23.67 mmol/L
CHLORIDE [3]: 102.33 MEQ/L
CHOLESTEROL [3]: 53.33 mg/dL
CREATINE PHOSPHOKINASE [3]: 217.33 u/L
CREATININE [3]: 0.11 mg/dL
GLUCOSE [3]: 182.33 mg/dL
LACTATE DEHYDROGENASE [3]: 512.67 u/L
LIPASE [3]: 9.33 u/L
PHOSPHORUS [3]: 12.13 mg/dL
POTASSIUM [3]: 7.33 MEQ/L
SODIUM [3]: 141.1 MEQ/L
TOTAL BILIRUBIN [3]: 0.9 mg/dL
TOTAL PROTEIN [3]: 5.7 G/DL
URIC ACID [3]: 2 mg/dL
ABSOLUTE BASOPHIL [4]: 0 CELLS/uL
ABSOLUTE EOSINOPHIL [4]: 0 CELLS/uL
ABSOLUTE LYMPHOCYTE [4]: 25256 CELLS/uL
ABSOLUTE MONOCYTE [4]: 656 CELLS/uL
ABSOLUTE SEGMENTED NEUTROPHIL [4]: 6888 CELLS/uL
BASOPHIL [4]: 0%
EOSINOPHIL [4]: 0%
ERYTHROCYTE COUNT [4]: 2.84 x10E6/uL
HEMATOCRIT [4]: 25.3%
LEUKOCYTE COUNT [4]: 32.8 x10E3/uL
LYMPHOCYTE [4]: 77%
MEAN CORPUSCULAR VOLUME [4]: 89.1 fL
MONOCYTE [4]: 2%
NEUTROPHIL [4]: 21%
NUCLEATED RED BLOOD CELLS [4]: 31 /100WBC
PLATELET COUNT [4]: 1632 x10E3/uL
ALANINE AMINOTRANSFERASE [4]: 84 u/L
ALBUMIN [4]: 4.8 G/DL
ALKALINE PHOSPHATASE [4]: 311 u/L
ASPARTATE AMINOTRANSFERASE [4]: 313 u/L
BLOOD UREA NITROGEN [4]: 28 mg/dL
CARBON DIOXIDE [4]: 17 mmol/L
CHLORIDE [4]: 106 MEQ/L
CHOLESTEROL [4]: 81 mg/dL
CREATINE PHOSPHOKINASE [4]: 196 u/L
CREATININE [4]: 0.1 mg/dL
GLUCOSE [4]: 129 mg/dL
LACTATE DEHYDROGENASE [4]: 1486 u/L
LIPASE [4]: 10 u/L
PHOSPHORUS [4]: 11.1 mg/dL
POTASSIUM [4]: 6.59 MEQ/L
SODIUM [4]: 143.3 MEQ/L
TOTAL BILIRUBIN [4]: 2.2 mg/dL
TOTAL PROTEIN [4]: 6.2 G/DL
URIC ACID [4]: 2 mg/dL
